The source of these data is patent publication US20190247371A1, “METHODS FOR TREATING SMALL CELL LUNG CANCERS BY USING PHARMACEUTICAL COMPOSITIONS OR COMBINATIONS COMPRISING INDOLIZINO[6,7-B]INDOLE DERIVATIVES” (priority 2016, published 2019).

Like-named read-outs stand apart in the source and are kept apart here. Some results are limits rather than exact numbers.

The test system of one data set is SCLC H211. Nature of the data set: SCLC H211 xenograft, BO-1978 and irinotecan alone or in combination. The format is in vivo, nude mice. The source says: H211 cells (3×10^6) were subcutaneously implanted into nude mice. When tumor size reached 100-200 mm^3, BO-1978 and irinotecan, cither alone or in combination were i.v. administered as indicated. Tumor size and body weight were taken at the time indicated. A, tumor size; and B, body weight.
In another experiment, the therapeutic efficacy of BO-1978 (alone) or in combination with irinotecan against SCLC H211 was investigated in xenograft models (FIG. 7). The H211 bearing mice (n=5) were administered with BO-1978 (alone, 40 mg/kg, QD×5), irinotecan (alone, 30 mg/kg, QD×5), and BO-1978 (40 mg/kg)+irinotecan (30 mg/kg) (QD×5) via iv inj.

Data set [1] deals with H211 cells. As to the kind of experiment: alamarBlue combined treatment cytotoxicity, H211 cells. The conditions noted are these: co-treated with irinotecan at various ratios, 72 h, FIG. 5. It is filed as cell-based. On the procedure: H211 cells were seeded and treated with various concentrations of BO-1978, or therapeutic agents either alone or in combination for 72 h. Cell survival was analyzed using alamarBlue assay. CI indicates combination index. A, BO-1978 and cisplatin; B, BO-1978 and etoposide; and C, BO-1978 and irinotecan.
(§1) Combination therapy is therapy that uses more than one drug for therapy. […] The resulting combination index (CI) theorem of Chou-Talalay offers quantitative definition for additive effect (CI=1), synergism (CI<1), and antagonism (CI>1) in drug combinations (Chou 2010^44).
Background: The colour change of resazurin is a common sign of viable cells or microbes.

Data set [2] concerns H526 cells. Nature of the data set: alamarBlue combined treatment cytotoxicity, H526 cells. It is filed as cell-based. As to conditions: co-treated with irinotecan at various ratios, 72 h, FIG. 4. On the procedure:
Cell survival was analyzed using alamarBlue assay. CI indicates combination index A, BO-1978 and cisplatin; B, BO-1978 and etoposide; and C, BO-1978 and irinotecan.
as §1

The subject of data set [3] is EGFR wild-type and mutant NSCLC tumors. As to conditions: cited from earlier work.
Data set [4] relates to SCLC H211 cells. Nature of the data set: Cell cycle analysis by flow cytometry, H211 cells. The format is cell-based. As to conditions: 24, 48, 72 h, FIG. 9. On the procedure:
H211 cells were treated with various concentrations of (A) BO-1978, (B) BMN-673, or (C) BO-1978 plus BMN-673 at 24, 48, and 72 h. At the end of treatment, the cells were harvested by trypsinization, fixed in ice-cold ethanol, stained with propidium iodide, and subjected to cell cycle analysis with a flow cytometer.
In the present invention, the SCLC H211 cells were treated with the combination of BO-1978 and BMN 673 or HY-10130 for 72 h. Cell survival was analyzed by PrestoBlue Assay. The combination index (CI) was calculated using CompuSyn software (Chou 2006^61).

Data set [5] has as its system SCLC H211 cells. Nature of the data set: SCLC H211 tumor xenograft model, single agents. It is filed as in vivo, nude mice. The conditions noted are these: same dosages and route as H526 study, FIG. 3. On the procedure:
H211 (3×10^6) were subcutaneously implanted into nude mice. When rumor size reached 100-200 mm^3, BO-1978, etoposide, irinotecan, and cisplatin were i.v. administered as indicated. Tumor size and body weight were taken at the time indicated. A, tumor size; and B, body weight.
In another experiment, the effect of BO-1978 on the inhibition of SCLC H211 cells, a fast growing cell line, was evaluated in xenograft model. Mice were treated with the tested compounds under the same dosages and administration route as described above.

The next data set concerns SCLC H526 xenografts. Nature of the data set: SCLC H526 xenograft, BO-1978 and irinotecan alone or in combination. The format is in vivo, nude mice. On the procedure:
H526 cells (1×10^7) were subcutaneously implanted into nude mice. When tumor size reached 100-200 mm^3, BO-1978 and irinotecan, either alone or in combination were i.v. administered as indicated. Tumor size and body weight were taken at the time indicated A, tumor size; and B, body weight.
The mice (n=5) bearing SCLC H526 xenografts were treated with BO-1978 (alone, 40 mg/kg, Q2D×5), irinotecan (alone, 30 mg/kg, Q2D×5), and BO-1978 (40 mg/kg)+irinotecan (30 mg/kg) (Q2D×5) via iv inj.

Data set [6] has as its system H211 cells. As to the kind of experiment: alamarBlue cytotoxicity assay, SCLC H211 cells. The format is cell-based. The conditions noted are these: read-out: IC50, concentration required to inhibit cell growth by 50%. On the procedure:
(§2) The inhibitory effect of BO-1978 on the cell growth of SCLC cell lines in vitro was examined. The cytotoxicity was assayed using alamarBlue® reagent (AbD Serotec) as previously described in U.S. Pat. No. 8,703,951 B2. In brief, H82, H211 and H526 cells were seeded to a 96 well plate with 5000, 1000 and 3000 cells per well, respectively, and incubated for 24 h. The growing cells were treated with BO-1978, cisplatin, etoposide or irinotecan at serial-diluted concentrations for 72 h at 37° C. An aliquot of alamarBlue® reagent (AbD Serotec) was added and the cultures were incubated for 5 h. The fluorescence at excitation 530 nm and emission 590 nm was read with a plate reader. The proliferation rate was calculated according to the manufacturer's instruction. The values of IC50 (50% inhibition concentration) for each compound were determined from dose-effect relationship using the CompuSyn software (Chou 2010^44).

For data set [7] the following is noted: preclinical toxicity studies; cited from earlier work.
A further data set concerns SCLC H526 cells. As to the kind of experiment: SCLC H526 tumor xenograft model, single agents. The format is in vivo. The conditions noted are these: for body weight change: doses within MTD: BO-1978 40 mg/kg QD×5, etoposide 10 mg/kg Q2D×3, irinotecan 30 mg/kg QD×6, cisplatin 6 mg/kg Q4D×3, FIG. 2B. On the procedure:
H526 cells (1×10^7) were subcutaneously implanted into nude mice. […] Tumor size and body weight were taken at the time indicated. A, average tumor size changes; B, average body weight changes; and C, Kaplan-Meyer survival curves.
The animals used in this study were treated exactly according to the guidelines of the Academia Sinica Institutional Animal Care and Utilization Committee. Male athymic nude mice in 5 weeks of age were obtained from the National Laboratory Animal Center (Taipei, Taiwan) and housed for 1 week before performing experiments H526 cells (1×10^7) were subcutaneously implanted into nude mice (five groups, each 4 mice). […] Etoposide (10 mg/kg Q2D×3), irinotecan (30 mg/kg QD×6), and cisplatin (6 mg/kg Q4D×3) were used as the positive control and were administered as indicated.

Data set [8] relates to H526 cells. As to the kind of experiment: alamarBlue cytotoxicity assay, SCLC H526 cells. The format is cell-based. The conditions noted are these: read-out: IC50, concentration required to inhibit cell growth by 50%. On the procedure:
as §2

The next data set deals with H82 cells. Nature of the data set: alamarBlue cytotoxicity assay, SCLC H82 cells. It is filed as cell-based. The conditions noted are these: read-out: IC50, concentration required to inhibit cell growth by 50%. On the procedure: as §2
The subject of the next data set is NSCLC cells. The conditions noted are these: in vitro; cited from earlier work.
The subject of the next data set is PC9/gef B4 cells. The conditions noted are these: cited from earlier work.

In the case of `CCc1c(CO)c(CO)c2n1Cc1c(c3ccccc3n1C)C2` [BO-1978, [3-ethyl-6-methyl-6,11-dihydro-5H-indolizino[6,7-b]indole-1,2-diyl]dimethanol], the “therapeutic efficacy, mono-drug comparison” value in the data set on SCLC H211 (40 mg/kg QD×5 iv, n=5) was “more potent than irinotecan (alone)”. Also, in the data set with SCLC H211 (QD×5 iv), the “day of tumor relapse” value turned out to be 18 days and the “day tumor CR was seen” value was found to be 14 days. Besides, the cytotoxicity of co-treatment entry with H211 cells [1] is given as “enhanced the cytotoxicity”. For the same molecule, in the data set on H526 cells [2], the cytotoxicity of co-treatment result is on record as “enhanced the cytotoxicity”. In addition, the body weight loss entry in [3] (xenograft and orthotopic lung tumor models) was “negligible body weight loss”. In addition, the “therapeutic efficacy in nude mice bearing NSCLC” value in [3] (xenograft and orthotopic models) was “potent therapeutic efficacy”. Besides, in the data set with SCLC H211 cells [4], the “effect on G2/M phase of cell cycle” value is given as “induced severe G2/M arrest” and the “subG1 cells (apoptotic death)” value is “appearance of the subG1 cells at high doses”. In addition, the “inhibition of tumor growth” value in the data set with SCLC H211 cells [5] is “more potent than the drugs used for comparison”. Also, the tumor growth suppression entry in the data set with SCLC H526 xenografts (40 mg/kg Q2D×5 iv, n=5) is “significantly suppressed tumor growth”. In addition, in the data set with SCLC H526 xenografts (day 14, Q2D×5 iv), the “mice with complete remission (CR)” value was 4/5 and the “mice with tumor <100 mm3” value is recorded as 1/5. The IC50 with H211 cells [6] (Homo sapiens, NCI-H211, H211, 72 h, mean ± S.D. of 3 independent experiments) turned out to be 0.148 ± 0.001 µM. For the same molecule, in data set [7], the toxicity in mice result is reported as “does not cause apparent toxicity”. In the data set with SCLC H526 cells (BO-1978 40 mg/kg QD×5 iv, FIG. 2A), the “therapeutic effect on tumor size” value was “more efficacious than etoposide, irinotecan and cisplatin”. In addition, in the data set on SCLC H526 cells, the body weight change entry is on record as “did not cause body weight lost”. In the data set with SCLC H526 cells (one out of 4 mice, FIG. 2C), this molecule had a survival term above 430 days. Moreover, the IC50 in the data set on H526 cells [8] (Homo sapiens, NCI-H526, H526, 72 h, mean ± S.D. of 3 independent experiments) came to 0.076 ± 0.026 µM. Besides, in the data set with H82 cells (Homo sapiens, NCI-H82, H82, 72 h, mean ± S.D. of 3 independent experiments), the IC50 stood at 0.35 ± 0.28 µM. In addition, the “cytotoxicity against cell growth of various NSCLC cells” value in the data set on NSCLC cells was “significant cytotoxicity”. The “killing of cells with acquired gefitinib resistance” value in the data set on PC9/gef B4 cells is “effectively kills”.

Take `N.N.[Cl][Pt][Cl]` [Cisplatin, cis-diaminedichloroplatinum]: the IC50 with H211 cells [6] (H211, 72 h, mean ± S.D. of 3 independent experiments) stood at 0.57 ± 0.29 µM; in the data set on H526 cells [8] (H526, 72 h, mean ± S.D. of 3 independent experiments), 0.66 ± 0.25 µM; in the data set with H82 cells (H82, 72 h, mean ± S.D. of 3 independent experiments) it was 0.34 ± 0.08 µM. The “day mice were sacrificed because tumor size was over 2,500 mm^3” value in the data set with SCLC H526 cells is 35 days. The body weight change entry in the data set on SCLC H526 cells is given as “did not cause body weight lost”.

`COc1cc([C@@H]2c3cc4c(cc3[C@@H](O[C@@H]3O[C@@H]5CO[C@@H](C)O[C@H]5[C@H](O)[C@H]3O)[C@H]3COC(=O)[C@H]23)OCO4)cc(OC)c1O` [Etoposide]: the IC50 with H211 cells [6] (Homo sapiens, NCI-H211, 72 h) came to 0.07 ± 0.03 µM; in the data set with H526 cells [8] (Homo sapiens, NCI-H526, 72 h) it was 0.05 ± 0.02 µM; in the data set with H82 cells (Homo sapiens, NCI-H82, 72 h) it was 0.146 ± 0.002 µM. Further, the “day mice were sacrificed because tumor size was over 2,500 mm^3” value in the data set with SCLC H526 cells came out at 35 days. Besides, the body weight change result in the data set on SCLC H526 cells is recorded as “did not cause body weight lost”.

`Cn1ncnc1[C@H]1c2n[nH]c(=O)c3cc(F)cc(c23)N[C@@H]1c1ccc(F)cc1` [BMN 673, (8S,9R)-5-Fluoro-8-(4-fluorophenyl)-9-(1-methyl-1H-1,2,4-triazol-5-yl)-2,7,8,9-tetrahydro-3H-pyrido[4,3,2-de]phthalazin-3-one, reference compound]: in the data set with SCLC H211 cells [4], the “effect on G2/M phase of cell cycle” value was “delayed the progression of the G2/M phase” and the “subG1 cells (apoptotic death)” value was “did not induce subG1 cells”.

Turning to `CCc1c2c(nc3ccc(OC(=O)N4CCC(N5CCCCC5)CC4)cc13)-c1cc3c(c(=O)n1C2)COC(=O)[C@]3(O)CC` [Irinotecan], the “day of tumor relapse” value in the data set with SCLC H526 xenografts (30 mg/kg Q2D×5 iv) was found to be 15 days. Besides, the IC50 with H211 cells [6] (Homo sapiens, NCI-H211, 72 h) was found to be 0.03 ± 0.01 µM; in the data set with H526 cells [8] (Homo sapiens, NCI-H526, 72 h), 1.18 ± 0.57 µM; with H82 cells (Homo sapiens, NCI-H82, 72 h), 1.2 ± 0.07 µM. Further, the “day mice were sacrificed because tumor size was over 2,500 mm^3” value in the data set with SCLC H526 cells was found to be 45 days. Besides, in the data set on SCLC H526 cells, the body weight change result is listed as “did not cause body weight lost”.
